{"source": "patent US20100317730A1", "about": "“Treatment for menopausal and perimenopausal vasomotor symptons” (priority 2009, published 2010)", "test_system": "perimenopausal and menopausal vasomotor symptoms, hot flashes and excessive sweating", "assay": "Clinical use of topiramate for menopausal and perimenopausal vasomotor symptoms", "assay_type": "in vivo, human", "text": "Based on data and observations made by the inventor, they have found topiramate to have the following, previously undiscovered, beneficial pharmacological effects for patients with excessive sweating and hot flashes. They are as follows: • 1. […] Helps to prevent patients from experiencing hot flashes, excessive sweating, and vasomotor symptoms associated with their perimenopause and menopause. • 3. Substantial improve or completely suppress nighttime vasomotor symptoms, excessive sweating, and hot flashes associated with perimenopause and menopause. • 4. Substantial improve or completely suppress daytime vasomotor symptoms, excessive sweating, and hot flashes associated with perimenopause and menopause. • 5. Effective in controlling these symptoms when taken only on an as needed basis. […] Optionally, the topiramate can be taken as a low dose on an as-needed basis. […] a person had been stable on their current treatment for Panic and Major Depressive Disorders with a satisfactory remission for several years and without any side effect complaints. However, now […], they started developing menopausal symptoms of hot flashes and excessive sweating. After counselling and informed consent about the off-label use, they took a trial of topiramate 25 mg by mouth twice daily. Upon follow up, they confirmed that the excessive sweating was improved with this low dose of topiramate and that they have found it to be effective when taken on an as needed basis, depending on their expectations of physical activity and weather/temperature conditions. […] Several other similar clinical examples were observed.", "data": [{"smiles": "CC1(C)O[C@@H]2[C@@H](CO[C@@]3(COS(N)(=O)=O)OC(C)(C)O[C@@H]23)O1", "note": "[topiramate]", "values": [{"measurement": "excessive sweating", "setting": "A person, menopausal hot flashes and excessive sweating, topiramate 25 mg by mouth twice daily, at follow up", "value": "improved"}, {"measurement": "effectiveness when taken on an as needed basis", "setting": "A person, low dose topiramate taken as needed, depending on physical activity and weather/temperature", "value": "effective"}, {"measurement": "adverse effects", "setting": "A person, topiramate 25 mg by mouth twice daily", "value": "no adverse effects"}, {"measurement": "side effects", "setting": "inventor's patients, small doses", "value": "minimal to no side effects"}, {"measurement": "vasomotor symptoms, excessive sweating and hot flashes", "setting": "perimenopausal and menopausal patients, inventor's data and observations", "value": "Substantial improvement"}, {"measurement": "treating hot flashes and hyperhidrosis", "setting": "perimenopausal and menopausal women, doses as low as 12.5 mg per day", "value": "highly effective"}]}]}
